System: Escherichia coli BL21 Δ7 cells
Assay: cells
Format: cell-based
Details: BL21, 5 h, read-out: IC50 (toxic to cell growth)

Q: `COc1cccc2c1C(=O)c1c(O)c3c(c(O)c1C2=O)C[C@@](O)(C(=O)CO)C[C@@H]3O[C@H]1C[C@H](N)[C@H](O)[C@H](C)O1` [Doxorubicin, doxorubicin] was tested. Which IC50 did it give?
A: ~1000 nM
